{"source": "patent US10227345B2", "about": "“Compounds and methods for inhibiting fascin” (Cornell University, priority 2014, dated 2019)", "target": "T1, human fascin 1 (Homo sapiens, UniProt Q16658)", "T1 construct": "GST (N, cleaved yes); made in house; host or cells: Escherichia coli BL21/DE3 (pGEX4T-fascin 1 plasmid)", "test": "Fascin inhibition (actin bundling) assay, image-based", "format": "biochemical", "conditions": "in the presence of 50 μm of the compound relative to bundle activity when the compound was not present; read-out: Inhibition (percentage reduction of bundle activity)", "method": "Recombinant human fascin 1 was expressed as a GST fusion protein in BL21 Escherichia coli. One liter of 2YT medium with ampicillin was inoculated overnight with 3 mL of BL21/DE3 culture transformed with pGEX4T-fascin 1 plasmid and grown at 37° C. until attenuance at 600 nm (D600) reached about 0.8. The culture was then transferred to 18° C. and induced by the addition of 0.1 mM isopropyl β-d-thiogalactoside (IPTG) for 12 h. Bacteria were harvested by centrifugation at 5,000 r.p.m. for 10 min. The pellets were suspended in 30 mL of PBS supplemented with 0.2 mM PMSF, 1 mM DTT, 1% (v/v) Triton X-100 and 1 mM EDTA. After sonication, the suspension was centrifuged at 15,000 r.p.m. for 30 min to remove the cell debris. The supernatant was then incubated for 2 h with 4 mL of glutathione beads (Sigma) at 4° C. After extensive washing with PBS, the beads were resuspended in 10 mL of thrombin cleavage buffer (20 mM Tris-HCl pH 8.0, 150 mM NaCl, 2 mM CaCl2, 1 mM DTT). Fascin was released from the beads by incubation overnight with 40-100 U of thrombin at 4° C. After centrifugation, 0.2 mM PMSF was added to the supernatant to inactivate the remnant thrombin activity. The fascin protein was further concentrated with a Centricon® (Boca Raton, Fla.) filter to about 50 mg/mL.\nRepresentative compounds described herein were tested for fascin inhibition activity. Purified fascin protein (15 μL of 0.5 μM) in buffer (100 mM KCl, 20 mM Tris/HCl, pH 7.5, 2 mM MgCl2) was added into each well of a clear 384-well flat-bottom plate (Corning) using Thermo Multidrop Combi (Fisher). Compound solutions (5 mM stock, 180 nL) were pin transferred from stock 384-well plates into the 384-well assay plates and incubated for 30 min. Then 15 μL of 0.5 μM polymerized actin (in 100 mM KCl, 20 mM Tris/HCl, pH 7.5, 2 mM MgCl2, 1 mM DTT, 1 mM ATP) (Cytoskeleton Inc.) was added, resulting in 30 μM final concentration for chemical compounds. […] Mixed solution (25 μL) was then transferred to one well in a black 384-well plate coated with poly-D-lysine, and stained actin bundles or F-actin would stick onto the poly-D-lysine plates. After the plates were thoroughly washed with 1×PBS for 3 times, the plate was imaged using an ImageXpress Micro High Content Screening System (Molecular devices). The images were processed and analyzed using MetaMorph software. The raw image data for each well was background-corrected by subtraction of the median intensities across all wells on the plate. The background-corrected data was used to compute the bundle length for each well. The negative control wells were employed for quality control: multiple DMSO-only control wells (16 wells/plate) were present on each assay plate.", "data": [{"smiles": "O=C(Nc1nn(Cc2ccc(C(F)(F)F)cc2)c2ccccc12)c1ccccc1Br", "note": "[Compound 46, 2-bromo-N-(1-(4-(trifluoromethyl)benzyl)-1H-indazol-3-yl)benzamide]", "values": [{"measurement": "inhibition at 50 µM", "result": "< 10", "unit": "%"}]}, {"smiles": "FC(F)(F)c1ccc(Cn2nc(-c3ccccc3)c3ccccc32)cc1", "note": "[Compound 144, 3-Phenyl-1-(4-(trifluoromethyl)benzyl)-1H-indazole]", "values": [{"measurement": "inhibition at 50 µM", "result": 10, "unit": "%"}]}, {"smiles": "Cc1nocc1C(=O)Nc1nn(Cc2ccc(C#N)cc2)c2ccccc12", "note": "[Compound 86, N-(1-(4-cyanobenzyl)-1H-indazol-3-yl)-3-methylisoxazole-4-carboxamide]", "values": [{"measurement": "inhibition at 50 µM", "result": "< 10", "unit": "%"}]}, {"smiles": "Nc1nn(Cc2ccc(C(F)(F)F)cc2)c2ccc(C(F)(F)F)cc12", "note": "[Compound 122, 5-(trifluoromethyl)-1-(4-(trifluoromethyl)benzyl)-1H-indazol-3-amine]", "values": [{"measurement": "inhibition at 50 µM", "result": "< 10", "unit": "%"}]}, {"smiles": "O=C(Nc1nn(Cc2ccc(C(F)(F)F)cc2)c2ccc(C(F)(F)F)cc12)c1ccoc1", "note": "[Compound 123, N-(5-(trifluoromethyl)-1-(4-(trifluoromethyl)benzyl)-1H-indazol-3-yl)furan-3-carboxamide]", "values": [{"measurement": "inhibition at 50 µM", "result": "< 10", "unit": "%"}]}, {"smiles": "FC(F)(F)c1ccc(Cn2nc(Br)c3ccccc32)cc1", "note": "[Compound 143, 3-Bromo-1-(4-(trifluoromethyl)benzyl)-1H-indazole]", "values": [{"measurement": "inhibition at 50 µM", "result": 10, "unit": "%"}]}, {"smiles": "Cc1occc1C(=O)Nc1nn(Cc2ccc(Cl)cc2)c2ccccc12", "note": "[Compound 67, N-(1-(4-chlorobenzyl)-1H-indazol-3-yl)-2-methylfuran-3-carboxamide]", "values": [{"measurement": "inhibition at 50 µM", "result": 50, "unit": "%"}]}, {"smiles": "Cc1nocc1C(=O)Nc1nn(Cc2ccc(C(F)(F)F)nc2)c2ccccc12", "note": "[Compound 93, 3-methyl-N-(1-((6-(trifluoromethyl)pyridin-3-yl)methyl)-1H-indazol-3-yl)isoxazole-4-carboxamide]", "values": [{"measurement": "inhibition at 50 µM", "result": "< 10", "unit": "%"}]}, {"smiles": "O=C(Nc1nn(Cc2ccc(C(F)(F)F)cc2)c2ccccc12)c1ccc(F)cc1", "note": "[Compound 13]", "values": [{"measurement": "inhibition at 50 µM", "result": "< 10", "unit": "%"}]}, {"smiles": "O=C(Nc1nn(Cc2ccc(C(F)(F)F)nc2)c2ccccc12)c1cccnn1", "note": "[Compound 96, N-(1-((6-(trifluoromethyl)pyridin-3-yl)methyl)-1H-indazol-3-yl)pyridazine-3-carboxamide]", "values": [{"measurement": "inhibition at 50 µM", "result": "< 10", "unit": "%"}]}, {"smiles": "Nc1nn(Cc2ccc(C(F)(F)F)cc2)c2ccccc12", "note": "[Compound 59, 1-(4-(trifluoromethyl)benzyl)-1H-indazol-3-amine]", "values": [{"measurement": "inhibition at 50 µM", "result": "< 10", "unit": "%"}]}, {"smiles": "CCCC(=O)Nc1nn(Cc2ccc(C(F)(F)F)cc2)c2cncc(Cl)c12", "note": "[Compound 153, N-(4-chloro-1-(4-(trifluoromethyl)benzyl)-1H-pyrazolo[3,4-c]pyridin-3-yl)butyramide]", "values": [{"measurement": "inhibition at 50 µM", "result": 10, "unit": "%"}]}, {"smiles": "Cc1ccc(Cn2nc(NC(=O)c3ccno3)c3ccccc32)cc1", "note": "[Compound 80, N-(1-(4-methylbenzyl)-1H-indazol-3-yl)isoxazole-5-carboxamide]", "values": [{"measurement": "inhibition at 50 µM", "result": 50, "unit": "%"}]}, {"smiles": "N#Cc1ccc2c(c1)c(NC(=O)c1cccnn1)nn2Cc1ccc(C(F)(F)F)nc1", "note": "[N-(5-cyano-1-((6-(trifluoromethyl)pyridin-3-yl)methyl)-1H-indazol-3-yl)pyridazine-3-carboxamide]", "values": [{"measurement": "inhibition at 50 µM", "result": "< 10", "unit": "%"}]}, {"smiles": "Cc1scnc1C(=O)Nc1nn(Cc2ccc(C(F)(F)F)cc2)c2ccccc12", "note": "[Compound 32, 5-methyl-N-(1-(4-(trifluoromethyl)benzyl)-1H-indazol-3-yl)thiazole-4-carboxamide]", "values": [{"measurement": "inhibition at 50 µM", "result": "< 10", "unit": "%"}]}, {"smiles": "FC(F)(F)c1ccc(Cn2nc(-c3cccc4ccccc34)c3ccccc32)cc1", "note": "[Compound 145, 3-(naphthalen-1-yl)-1-(4-(trifluoromethyl)benzyl)-1H-indazole]", "values": [{"measurement": "inhibition at 50 µM", "result": 10, "unit": "%"}]}, {"smiles": "Cc1ccc(Cn2nc(NC(=O)c3ccoc3C)c3ccccc32)cc1", "note": "[Compound 81, 2-methyl-N-(1-(4-methylbenzyl)-1H-indazol-3-yl)furan-3-carboxamide]", "values": [{"measurement": "inhibition at 50 µM", "result": "< 10", "unit": "%"}]}, {"smiles": "Cc1ccc(Cn2nc(NC(=O)c3ccoc3)c3ccccc32)cc1", "note": "[Compound 78, N-(1-(4-methylbenzyl)-1H-indazol-3-yl)furan-3-carboxamide]", "values": [{"measurement": "inhibition at 50 µM", "result": "< 10", "unit": "%"}]}, {"smiles": "N#Cc1ccc(Cn2nc(NC(=O)c3ccno3)c3ccccc32)cc1", "note": "[Compound 87, N-(1-(4-cyanobenzyl)-1H-indazol-3-yl)isoxazole-5-carboxamide]", "values": [{"measurement": "inhibition at 50 µM", "result": "< 10", "unit": "%"}]}, {"smiles": "Cc1ccc(Cn2nc(NC(=O)c3conc3C)c3ccccc32)cc1", "note": "[Compound 79, 3-methyl-N-(1-(4-methylbenzyl)-1H-indazol-3-yl)isoxazole-4-carboxamide]", "values": [{"measurement": "inhibition at 50 µM", "result": "< 10", "unit": "%"}]}, {"smiles": "Cc1occc1C(=O)Nc1nn(Cc2ccc(C#N)cc2)c2ccccc12", "note": "[Compound 88, N-(1-(4-cyanobenzyl)-1H-indazol-3-yl)-2-methylfuran-3-carboxamide]", "values": [{"measurement": "inhibition at 50 µM", "result": "< 10", "unit": "%"}]}, {"smiles": "Cc1cc(C(=O)Nc2nn(Cc3ccc(C(F)(F)F)cc3)c3ccccc23)oc1C", "note": "[Compound 1, 4,5-dimethyl-N-(1-(4-(trifluoromethyl)benzyl)-1H-indazol-3-yl)furan-2-carboxamide]", "values": [{"measurement": "inhibition at 50 µM", "result": "< 10", "unit": "%"}]}, {"smiles": "O=C(Nc1cn(Cc2ccc(C(F)(F)F)cc2)c2ccccc12)c1ccoc1", "note": "[Compound 105, N-(1-(4-(trifluoromethyl)benzyl)-1H-indol-3-yl)furan-3-carboxamide]", "values": [{"measurement": "inhibition at 50 µM", "result": "< 10", "unit": "%"}]}, {"smiles": "O=C(Nc1nn(Cc2ccccc2C(F)(F)F)c2ccccc12)c1ccoc1", "note": "[Compound 57, N-(1-(2-(trifluoromethyl)benzyl)-1H-indazol-3-yl)furan-3-carboxamide]", "values": [{"measurement": "inhibition at 50 µM", "result": "< 10", "unit": "%"}]}, {"smiles": "O=C(Nc1nn(Cc2ccc(C(F)(F)F)cc2)c2ccccc12)c1csc(Cl)n1", "note": "[Compound 24, 2-chloro-N-(1-(4-(trifluoromethyl)benzyl)-1H-indazol-3-yl)thiazole-4-carboxamide]", "values": [{"measurement": "inhibition at 50 µM", "result": "< 10", "unit": "%"}]}, {"smiles": "O=C(Nc1nn(Cc2ccc(C(F)(F)F)cc2)c2ccccc12)c1ccccc1OC(F)F", "note": "[Compound 47, 2-(difluoromethoxy)-N-(1-(4-(trifluoromethyl)benzyl)-1H-indazol-3-yl)benzamide]", "values": [{"measurement": "inhibition at 50 µM", "result": "< 10", "unit": "%"}]}, {"smiles": "O=C(Nc1nn(Cc2ccc(F)cc2)c2ccccc12)c1ccno1", "note": "[Compound 73, N-(1-(4-fluorobenzyl)-1H-indazol-3-yl)isoxazole-5-carboxamide]", "values": [{"measurement": "inhibition at 50 µM", "result": 50, "unit": "%"}]}, {"smiles": "O=C(Nc1nn(Cc2ccc(Cl)cc2)c2ccccc12)c1ccoc1", "note": "[Compound 64, N-(1-(4-chlorobenzyl)-1H-indazol-3-yl)furan-3-carboxamide]", "values": [{"measurement": "inhibition at 50 µM", "result": 50, "unit": "%"}]}, {"smiles": "CNc1nn(Cc2ccc(C(F)(F)F)cc2)c2cncc(Cl)c12", "note": "[Compound 149]", "values": [{"measurement": "inhibition at 50 µM", "result": 10, "unit": "%"}]}, {"smiles": "Cc1occc1C(=O)Nc1nn(Cc2ccc(C(F)(F)F)cc2)c2c(C(F)(F)F)cccc12", "note": "[Compound 114, 2-methyl-N-(7-(trifluoromethyl)-1-(4-(trifluoromethyl)benzyl)-1H-indazol-3-yl)furan-3-carboxamide]", "values": [{"measurement": "inhibition at 50 µM", "result": "< 10", "unit": "%"}]}, {"smiles": "Cc1occc1C(=O)Nc1nn(Cc2ccc(F)cc2)c2ccccc12", "note": "[Compound 74, N-(1-(4-fluorobenzyl)-1H-indazol-3-yl)-2-methylfuran-3-carboxamide]", "values": [{"measurement": "inhibition at 50 µM", "result": "< 10", "unit": "%"}]}, {"smiles": "Nc1nn(Cc2ccc(Cl)cc2)c2ccccc12", "note": "[Compound 63, 1-(4-chlorobenzyl)-1H-indazol-3-amine]", "values": [{"measurement": "inhibition at 50 µM", "result": "< 10", "unit": "%"}]}, {"smiles": "Cc1ccc2c(NC(=O)c3cccnn3)nn(Cc3ccc(C(F)(F)F)nc3)c2n1", "note": "[Compound 136, N-(6-methyl-1-((6-(trifluoromethyl)pyridin-3-yl)methyl)-1H-pyrazolo[3,4-b]pyridin-3-yl)pyridazine-3-carboxamide]", "values": [{"measurement": "inhibition at 50 µM", "result": "< 10", "unit": "%"}]}, {"smiles": "N#Cc1ccc(Cn2nc(NC(=O)c3cccnn3)c3ccccc32)cc1", "note": "[Compound 90, N-(1-(4-cyanobenzyl)-1H-indazol-3-yl)pyridazine-3-carboxamide]", "values": [{"measurement": "inhibition at 50 µM", "result": "< 10", "unit": "%"}]}, {"smiles": "Cc1occc1C(=O)Nc1nn(Cc2ccc(C(F)(F)F)cc2)c2cc(C(F)(F)F)ccc12", "note": "[Compound 109]", "values": [{"measurement": "inhibition at 50 µM", "result": "< 10", "unit": "%"}]}, {"smiles": "Nc1nn(Cc2ccc(C(F)(F)F)nc2)c2ccccc12", "note": "[Compound 91, 1-((6-(trifluoromethyl)pyridine-3-yl)methyl)-1H-indazol-3-amine]", "values": [{"measurement": "inhibition at 50 µM", "result": "< 10", "unit": "%"}]}, {"smiles": "O=C(Nc1nn(Cc2ccc(C(F)(F)F)cc2)c2ccccc12)c1ccccc1C(F)(F)F", "note": "[Compound 50, 2-(trifluoromethyl)-N-(1-(4-(trifluoromethyl)benzyl)-1H-indazol-3-yl)benzamide]", "values": [{"measurement": "inhibition at 50 µM", "result": "< 10", "unit": "%"}]}]}
